Measured values reported in ChEMBL document CHEMBL3507680, “University of Dundee, Gates Library screen for HepG2 cell viability”.

experiment: Human HepG2 cell viability assay in 384 well format; format: toxicity, cell-based; design: dose 125 nL, time 70.5 hour; concentration not given beside the values; details: HepG2 cells, read-out: Inhibition

SMILES | cytotoxicity at 70.5 h
O=S(=O)(NCCC(O)c1ccoc1)c1ccc(Cl)s1 (stereo not given) | -0.192%
Cc1c[nH]cc1C(=O)N1CCN(CCc2cccs2)CC1 | -5.85%
CCN(C1CCN(c2cccc(F)c2C(C)=O)CC1)S(C)(=O)=O | -5.28%
COc1ccc(CN2CCC(C(N)=O)CC2)cc1SC(F)(F)F | 5.97%
CC(CO)(CO)NC(=O)C1CCC(=O)N(Cc2ccc(Cl)cc2)C1 (stereo not given) | -2.86%
COc1ccc(N2CCC(C(=O)/N=c3/[nH]ccs3)CC2)nn1 | -7.23%
Cc1cc(NC(=O)CCN2CCCCC2Cn2cncn2)no1 (stereo not given) | -15.1%
CC1CCCN(Cc2c(C3CC3)[nH]c3ncccc23)C1 (stereo not given) | -4.53%
N#CC1(c2ccccc2)CCN(C(=O)C2CCCN(C(N)=O)C2)CC1 (stereo not given) | 43.9%
O=C(c1cnccn1)N1CC[C@@H]2CO[C@@H](CN3CCCC3)[C@@H]2C1 | -5.22%
Cc1ncnc2c1CCN(C(=O)c1cnccn1)CC2 | -0.588%
COc1ncnc(N(C)C)c1NC(=O)c1cscc1C | -9.9%
CC(C)c1nccc([C@@H]2C[C@@H]3CCN(Cc4ccco4)C[C@H]3O2)n1 | 38.3%
Cn1c(=O)[nH]c(=O)n2c(CC(=O)Nc3ccc(Cl)c(Cl)c3)cnc12 | -12.5%
CCOC(=O)N1CCN(c2nc(NCCCO)c3ccccc3n2)CC1 | -21.9%
CC(=O)NCc1ccc(C(=O)N2CCCC2c2cnn(C)c2)o1 (stereo not given) | -13.1%
CCc1cnc(N2CCCOC(CN3CCCC3)C2)nc1 (stereo not given) | 7.5%
CC(C)n1cnc(-c2nc(C(=O)NC3CC3)c3ccccn23)c1 | -15.8%
CCC(=O)N1C[C@@H](C(=O)NC)[C@H](c2ccnc(N3CCCC3)n2)C1 | -3.94%
O=C(c1ccccc1)N1CCC[C@]2(C[C@@H](Oc3ncccc3F)CO2)C1 | 23.2%
CC(C)NC(=O)N1CCC2(CC1)COc1ccccc1S(=O)(=O)N(C)C2 | 0.573%
O=C(CC1CC1)N1CCc2ncc(CN3CCOCC3)n2CC1 | -13.3%
COC(=O)c1ccc(C)c(N2CCNC2=O)c1 | -2.21%

SMILES | cytotoxicity at 70.5 h
CN(CCNC(=O)NCc1ccncc1)C1CCCC1 | -18%
O=C(NCCCO)Nc1cccc(I)c1 | -5.84%
COCC1c2nnn(C)c2CCN1C(=O)CCc1cccc(OC)c1 (stereo not given) | -3.47%
CN(CC(=O)NS(=O)(=O)c1cccs1)Cc1ccccc1 | 7.04%
Cn1ccnc1CC1CCCN(C(=O)NCCOc2cccnc2)C1 (stereo not given) | 1.38%
O=C1O[C@@H]2CN(Cc3ccncc3)C[C@@H]2N1CCCN1CCOCC1 | -3.93%
CCn1ncnc1C(C)NC(=O)CC1CCN(C(C)C)CC1 (stereo not given) | 30%
CN(C)C(=O)COCc1cncc2c1CCN(Cc1ccccc1)C2 | -3.3%
CS(=O)(=O)CCCNC(=O)Nc1sc2ccccc2c1Cl | -4.03%
O=C(NCC1CCN(CCc2ccccc2)C1)c1c(F)cccc1F (stereo not given) | 14.6%
CC(C)N(C)[C@@H]1CCN(c2ncccn2)[C@H]1Cc1ccncc1 | 1.38%
CCc1sc(C(=O)NC2CC2)cc1C | 8.53%
CC(C)Oc1cccc(C(=O)C2CCCN(C(=O)c3ccnn3C)C2)c1 (stereo not given) | 19.8%
COc1ccc(CN(C)C2CCN(S(C)(=O)=O)CC2)c2cccnc12 | -1.77%
O=C(CN1CCS(=O)(=O)CC1)Nc1ccc(N2CCCC2)nc1 | -5.27%
O=C(Cc1cccs1)N1C[C@@H]2CC[C@H](C1)N(Cc1ccccn1)C2=O | -10.5%
CC(Oc1cccc(Cl)c1)C(=O)Nc1cnn(CCN(C)C)c1 (stereo not given) | 23.7%
N#Cc1cc2c(nc1SCc1cc(O)nc(O)n1)CCCCC2 | -1.03%
Cc1cnc(CN2CCN(c3ccnc(-c4ccccc4)n3)CC2)cn1 | -10.6%
CN1CCCC(NC(=O)c2ccc(C(=O)c3cc[nH]c3)cc2)C1 (stereo not given) | -16.9%
Cn1cc(C2CC(=O)NC23CCN(CC2CC2)CC3)cn1 (stereo not given) | 9.8%
CCn1ncnc1C1CC(=O)NCc2nc3ccccn3c21 (stereo not given) | -3.8%
